Experimental data reported in publication PMC12947280, “An Antifungal with a Novel Mechanism of Action Discovered via Resistance Gene-Guided Genome Mining” (ACS Central Science, 2026).
Where two headings read alike, the source gives them in different places.

Experiments:
A. fumigatus = experiment: Inhibition of A. fumigatus growth; assay type: cell-based
C. albicans ALS = C. albicans ALS (Candida albicans, UniProt A0A1D8PJF9); experiment: ALS biochemical assay (CaALS)
A. fumigatus ALS = A. fumigatus ALS (Aspergillus fumigatus, UniProt Q4WXQ3); experiment: ALS biochemical assay (AfALS)
Sequence of A. fumigatus ALS (Q4WXQ3 entry or part of it): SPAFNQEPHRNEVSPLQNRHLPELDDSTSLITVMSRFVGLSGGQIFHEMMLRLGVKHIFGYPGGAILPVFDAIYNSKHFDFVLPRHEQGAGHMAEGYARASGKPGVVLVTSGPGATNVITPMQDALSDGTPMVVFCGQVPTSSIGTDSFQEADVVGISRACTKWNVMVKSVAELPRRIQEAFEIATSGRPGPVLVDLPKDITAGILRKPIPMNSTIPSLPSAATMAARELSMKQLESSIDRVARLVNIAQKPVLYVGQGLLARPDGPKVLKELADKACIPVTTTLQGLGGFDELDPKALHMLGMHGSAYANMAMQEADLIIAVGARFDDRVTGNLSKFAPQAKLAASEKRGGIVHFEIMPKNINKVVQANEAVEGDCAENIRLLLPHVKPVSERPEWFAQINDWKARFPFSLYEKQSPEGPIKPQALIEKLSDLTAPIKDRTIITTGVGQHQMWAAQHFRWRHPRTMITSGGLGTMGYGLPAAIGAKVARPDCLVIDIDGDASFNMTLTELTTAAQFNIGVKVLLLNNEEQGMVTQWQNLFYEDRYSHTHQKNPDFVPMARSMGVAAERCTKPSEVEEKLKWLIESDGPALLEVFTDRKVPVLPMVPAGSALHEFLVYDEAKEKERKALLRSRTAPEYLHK
Experimental: ALS biochemical assay (AfALS)
Aspergillus fumigatus acetohydroxyacid synthase (AfILV2) lacking the N-terminal mitochondrial-targeting sequence (amino acids 112-752) was overproduced and isolated from E. coli as an N-terminally His6-tagged protein. Assays (50 µL final volume) contained 200 nM His6-AfALS, 8 mM pyruvate, 1 mM thiamine pyrophosphate, and 10 µM flavin adenine dinucleotide, 10 mM MgCl2, 1 mM DTT, 1% DMSO (± inhibitor) in 200 mM KH2PO4 buffer at pH
7.5. Following a 30 min pre-incubation of the enzyme and inhibitor in the reaction mixture at room temperature, reactions were initiated with the addition of pyruvate. AfALS assays were carried out at 30 °C for 120 min. The reaction was quenched with the addition of 5 µL of 10% H2SO4 (v/v in deionized water). Reactions were incubated at 60 °C at incubating microplate shaker for 15 min to convert the product of the ALS reaction, acetolactate, to acetoin.
Subsequently, the concentration of acetoin was determined by the addition of 7.5 µL 6 M NaOH, 25 µL 0.5% creatine (w/v in deionized water), and 25 µL 4% 1-naphthol (w/v in 2.5 M NaOH).
This mixture was incubated at 60 °C in an incubating microplate shaker for 15 min. 40 µL of this reaction mixture was transferred to a half area UV-star 96-well plate (Grenier) and the absorbance at 525 nm was measured on a Spark multimode plate reader (Tecan). The percent inhibition was calculated by the comparison of the signal to DMSO (0% inhibition) and no enzyme (100% inhibition) controls. IC50 values were calculated from the dose response curves using Prism 9 (four parameter, variable slope). […]
(amino acids 58-687) was codon optimized for expression in E. coli and synthesized by […]

[1] = target: T1, S. cerevisiae ALS wild type (Saccharomyces cerevisiae, UniProt P07342); experiment: ALS biochemical assay (ScALS), wild type
T1 construct: made in house; host or cells: E. coli BL21 (DE3), pET28a-ScILV2
T1 sequence (P07342 58-687): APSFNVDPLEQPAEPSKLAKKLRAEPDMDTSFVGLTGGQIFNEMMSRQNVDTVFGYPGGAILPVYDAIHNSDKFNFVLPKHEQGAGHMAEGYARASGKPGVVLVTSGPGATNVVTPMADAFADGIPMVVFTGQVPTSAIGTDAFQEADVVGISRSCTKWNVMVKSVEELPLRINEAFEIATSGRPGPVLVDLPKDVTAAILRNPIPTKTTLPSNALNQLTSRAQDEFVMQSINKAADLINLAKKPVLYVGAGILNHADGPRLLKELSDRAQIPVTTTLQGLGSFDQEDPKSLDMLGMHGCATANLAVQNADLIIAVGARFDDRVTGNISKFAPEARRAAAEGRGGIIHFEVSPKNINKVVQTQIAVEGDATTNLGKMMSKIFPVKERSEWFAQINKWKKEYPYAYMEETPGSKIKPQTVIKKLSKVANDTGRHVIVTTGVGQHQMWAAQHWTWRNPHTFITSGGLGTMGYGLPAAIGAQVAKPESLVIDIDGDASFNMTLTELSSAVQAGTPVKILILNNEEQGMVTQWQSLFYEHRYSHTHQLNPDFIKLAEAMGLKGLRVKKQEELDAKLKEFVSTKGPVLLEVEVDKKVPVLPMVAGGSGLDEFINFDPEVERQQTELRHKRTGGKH
Experimental: (§1) ALS biochemical assay (ScALS)
(§2) Saccharomyces cerevisiae acetohydroxyacid synthase (ScALS) lacking the N-terminal […]
(§3) Escherichia coli as an N-terminally His6-tagged protein. Assays (50 µL final volume) contained […]
(§4) adenine dinucleotide, 10 mM MgCl2, 1 mM DTT, 1% DMSO (± inhibitor) in 500 mM K2HPO4 buffer at pH 7.5. Following a 30 min pre-incubation of the enzyme and inhibitor in the reaction mixture at room temperature, reactions were initiated with the addition of pyruvate. ScALS assays were carried out at 30 °C for 60 min. The reaction was quenched with the addition of 5 µL of 10% H2SO4 (v/v in deionized water). Reactions were incubated at 60 °C at 800 rpm in an […]
(§5) to acetoin. Subsequently, the concentration of acetoin was determined by the addition of 7.5 µL 6 M NaOH, 25 µL 0.5% creatine (w/v in deionized water), and 25 µL 4% 1-naphthol (w/v in 2.5 M NaOH). This mixture was incubated at 60 °C at 800 rpm in an incubating microplate shaker for […]
(§6) 40 µL of this reaction mixture was transferred to a half area UV-star 96-well plate (Grenier) and the absorbance at 525 nm was measured on a Spark multimode plate reader (Tecan). The percent inhibition was calculated by the comparison of the signal to DMSO (0% […]
(§7) IC50 values were calculated from the dose response curves using Prism 9 (four parameter, variable slope). […]
(§8) Expression and purification of ScALS
(§9) S. cerevisiae ILV2 (the gene or ScALS) lacking the N-terminal mitochondrial-localization tag

S. cerevisiae ALS P192S = target: T2, S. cerevisiae ALS P192S (Saccharomyces cerevisiae, UniProt P07342, P192S); experiment: biochemical; assay type: biochemical
T2 construct: His6 (followed by a TEV protease site, pET28a) (N); made in house; host or cells: E. coli (inferred from the ScALS method)
T2 sequence (P07342 58-687 P192S): as the sequence (P07342 58-687) above, with P135S counted along it
Experimental: as §1, §2, §3, §4, §5, §6, §7, §8, §9

[2] = Aspergillus fumigatus; read-out: A. fumigatus growth inhibition EC50 (Figure 4A)
[3] = Aspergillus fumigatus; read-out: A. fumigatus growth inhibition IC50

Sequence of C. albicans ALS (A0A1D8PJF9 entry or part of it): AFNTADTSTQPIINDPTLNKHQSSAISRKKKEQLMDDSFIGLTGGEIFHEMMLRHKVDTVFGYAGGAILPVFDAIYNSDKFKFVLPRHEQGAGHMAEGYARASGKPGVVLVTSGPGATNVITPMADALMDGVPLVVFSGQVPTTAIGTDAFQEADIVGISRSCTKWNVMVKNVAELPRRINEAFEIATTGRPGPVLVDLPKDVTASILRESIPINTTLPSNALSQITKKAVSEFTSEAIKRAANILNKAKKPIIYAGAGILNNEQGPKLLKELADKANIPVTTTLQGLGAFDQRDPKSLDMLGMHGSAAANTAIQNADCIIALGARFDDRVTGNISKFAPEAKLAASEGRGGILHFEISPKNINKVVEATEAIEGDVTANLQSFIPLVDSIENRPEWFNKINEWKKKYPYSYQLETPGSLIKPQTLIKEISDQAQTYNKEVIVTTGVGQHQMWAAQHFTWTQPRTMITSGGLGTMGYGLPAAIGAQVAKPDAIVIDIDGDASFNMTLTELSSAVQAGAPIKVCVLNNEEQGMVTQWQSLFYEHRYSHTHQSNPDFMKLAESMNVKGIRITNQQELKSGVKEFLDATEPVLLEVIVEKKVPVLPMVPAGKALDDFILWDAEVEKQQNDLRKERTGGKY

Compound | EC50 (A. fumigatus; [2]) [nM] | IC50 (A. fumigatus; [3]) [nM] | IC50 (C. albicans ALS) [nM] | IC50 (A. fumigatus ALS) [nM] | further results
C[C@@H](c1ncncc1F)[C@](O)(Cn1cncn1)c1ccc(F)cc1F [Voriconazole, voriconazole] | 500 ± 200 | 500 | – | – | –
COC(=O)c1ccccc1CS(=O)(=O)NC(=O)Nc1nc(OC)cc(OC)n1 [compound 2, bensulfuron methyl] | 57000 ± 20000 | 200000 | 30 ± 4 | 100 ± 20 | –
COc1cnc(OC)n2nc(NS(=O)(=O)c3c(OCC(F)F)cccc3C(F)(F)F)nc12 [compound 3, penoxsulam] | 23000 ± 7000 | 25000 | 3.4 ± 0.6 | 0.5 ± 0.2 | IC50 [1]: 0.4 ± 0.2 nM; IC50 (S. cerevisiae ALS P192S): 150 ± 30 nM
COc1cc(OC)nc(Oc2cccc(Oc3nc(OC)cc(OC)n3)c2C(=O)O)n1 [compound 4, bispyribac, reference compound] | – | – | – | – | IC50 ([1]; recombinant ScALS, read-out: S. cerevisiae ALS IC50 Wild type): 600 ± 100 nM
CCOC(=O)c1ccccc1S(=O)(=O)NC(=O)Nc1nc(Cl)cc(OC)n1 [compound 5, chlormuron ethyl] | – | – | – | 11 ± 3 | IC50 (C. albicans ALS; recombinant CaALS, read-out: ALS IC50 C. albicans): 27 ± 5 nM; EC50 (A. fumigatus; Aspergillus fumigatus, read-out: A. fumigatus growth inhibition EC50 (Figure 4A)): 80000 ± 30000 nM; IC50 (A. fumigatus; Aspergillus fumigatus, read-out: A. fumigatus growth inhibition IC50): 90000 nM
